Molecular target: Transcription factor Jun (Homo sapiens, UniProt P05412)
Assay: Inhibition of AP1 expressed in HEK293T cells coexpressing beta-lactamase pre-incubated 1 hr before TPA addition measured 18 hrs post TPA challenge by fluorimetric assay

Sequence of Transcription factor Jun (P05412 whole entry): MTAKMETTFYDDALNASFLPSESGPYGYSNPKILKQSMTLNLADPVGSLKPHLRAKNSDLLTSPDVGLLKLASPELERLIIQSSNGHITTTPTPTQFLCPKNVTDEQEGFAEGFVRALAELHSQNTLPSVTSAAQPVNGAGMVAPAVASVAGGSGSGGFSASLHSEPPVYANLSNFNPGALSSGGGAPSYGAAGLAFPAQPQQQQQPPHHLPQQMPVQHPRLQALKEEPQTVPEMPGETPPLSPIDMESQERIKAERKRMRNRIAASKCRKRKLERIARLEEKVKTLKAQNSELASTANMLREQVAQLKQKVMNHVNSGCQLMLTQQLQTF

IC50	Compound
5.2 µM	CC[C@H]1NC(=O)[C@@H]2CSC(=N2)[C@@H](Cc2ccccc2)N(C)C(=O)[C@@H]2CCCN2C(=O)[C@H](C(C)C)N(C)C(=O)[C@H](Cc2ccccc2)OC(=O)[C@H](C)[C@@H](C)NC(=O)[C@@H](C(C)C)NC(=O)[C@@H](Cc2ccccc2)N(C)C(=O)[C@@H]2CSC1=N2
6 µM	CC(C)[C@H]1C(=O)N2CCC[C@H]2C(=O)N(C)[C@H](Cc2ccccc2)C2=N[C@@H](CS2)C(=O)N[C@H](C)C2=N[C@@H](CS2)C(=O)N(C)[C@H](Cc2ccccc2)C(=O)N[C@H](C(C)C)C(=O)N[C@H](C)[C@@H](C)C(=O)O[C@@H](Cc2ccccc2)C(=O)N1C

From BindingDB's records for doi:10.1021/np2005083 (National Cancer Institute-Frederick, 2011)
